Experimental data published in patent US20210220340A1, “COMPOSITION FOR PREVENTION OR TREATMENT OF NEURODEGENERATIVE DISEASE” (THE ASAN FOUNDATION, priority 2018, published 2021).
Where a name gives a salt, the structure may show the parent alone. Read-outs that look alike come from different tables or passages of the source. One block for each compound: values may come before it.

How the values were obtained:
all PDE isoforms = experiment: HTS using all PDE isoforms as targets; type: biochemical; conditions: for inhibitory efficacy in all PDE isoforms: Example 18 screening, compared with cilostazol; for IC50: across PDE isoforms, FIG. 31
Protocol: Compounds included in the library of 800 FDA-approved drugs were diluted 1/4 from a concentration of 100 μM and dispensed into each well in 96-well plates, and mixed with a PDE reactant to allow a PDE reaction with the drug for 1 hour at a constant temperature.
The experiment was carried out in the same manner as used in screening of the FDA-approved drug library. […] Each of the screening library drugs were diluted 1/4 from 100 μM and dispensed into each well in 96-well plates, and mixed with a PDE reactant, followed by allowing a reaction between the drug and PDE for 1 hour for storage. After a stop solution was mixed with a AMP detection agent, the mixture was dispensed at 20 μl per well to allow a reaction for 10 minutes, followed by immediately measuring luminescence, and the experiment was performed according to a protocol provided by the kit used herein.
The first selection started with PDE3 as a target, and after candidate drugs were selected, all PDE isoforms were tested.

mouse pericytes [1] = experiment: Amyloid beta aggregation in pericytes treated with cilostazol (confocal microscopy, western blotting); type: cell-based; conditions: 1 hour (confocal) and 24 hours (western blot)
Protocol: Each type of cell was cultured under the culture conditions, a cell culture was restored, followed by preparing a particulate fraction in a 50 mM Tris buffer. Proteins obtained from the cell culture developed in a SDS polyacrylamide gel, transferred to an immobilon-P membrane (Millipore, USA), and reacted with antibodies overnight. Next day, western blots were washed, reacted with peroxidase-linked secondary antibodies at room temperature for 1 hour, followed by staining bands with 4-chloro-1-naphthol. From the result of Example 1, PDE3, which is specifically highly expressed in pericytes, is selected as a target material. It was observed how the treatment of cilostazol known as a specific inhibitor of PDE3 affects amyloid beta accumulation. FIG. 5 is a set of confocal microscope images of mouse pericytes which are cultured and then treated with CTL (control), amyloid beta (Aβ) and cilostazol (amyloid beta+cilostazol; +cilo) for 1 hour, respectively. The graph on the right side of FIG. 5 is obtained by observing pericytes treated with CTL (control), amyloid beta (Aβ) and cilostazol (amyloid beta+cilostazol; +cilo) for 1 hour, and measuring the fluorescence intensities thereof. […] The graph on the right side of FIG. 6 is obtained by measuring an oligomer/actin expression level and a monomer/actin expression level in each group.

mouse astrocytes = experiment: Lysosome pH change in astrocytes (LysoSensor Green DND-189, acridine orange); type: cell-based; conditions: amyloid beta-accumulated
Protocol: For astrocyte culture, first, cerebral cortices (neocortices) were dissociated from murine fetuses (3 weeks old), and the obtained cortical tissue was divided into single cells. Subsequently, the single cells were seeded, and the cultured astrocytes were stored using a culture medium (DMEM 7% FBS+7% HS+100 U/mL penicillin+100 μg/mL […]) in a humidified incubator at 37[…] under a condition of 5% carbon dioxide. After DIV 10-14, cells grown to 80-90% or more confluence were used, and before an experiment, the cells were washed twice with warm MEM and used. New cells were cultured and used each time without passaging.
FIG. 8A is a set of images that visualize pH changes for 0 to 1 hour in respective groups of mouse astrocytes, which are stained with LysoSensor Green DND-189, and then treated with either amyloid beta (Aβ) or amyloid beta and cilostazol (Aβ+cilo).

mouse pericytes [2] = experiment: Lysosome pH in bafilomycin A1-treated pericytes (LysoSensor, confocal microscope); type: cell-based; conditions: mouse pericytes treated with bafilomycin A1 alone
Source text: A system that can visualize changes in intracellular lysosome pH with LysoSensor, which is a pH-sensitive lysosomal dye, in mouse pericytes using a confocal microscope was established (refer to Example 6) to observe whether amlexanox (AMX) is involved in the pH change of lysosomes in cells.
FIG. 19 is a set of time-dependent confocal microscope images (left) of mouse pericytes when being treated with Bafilomycin A1, which is a vATPase inhibitor, and then stained with LysoSensor, and quantified data (right) thereof.
Here, the images on the left side of FIG. 19 are obtained by treating mouse pericytes with bafilomycin A1, which is a vATPase inhibitor, and analyzing the cells using LysoSensor over time by a confocal microscope (top), and by treating the bafilomycin A1-treated mouse pericytes with the finally selected amlexanox (AMX) and analyzing the cells using LysoSensor over time by a confocal microscope (bottom).

cathepsin B = experiment: Lysosomal function activity in astrocytes: degree of hydrolysis of cathepsin B; type: cell-based, mouse; conditions: mouse astrocytes treated with bafilomycin A1 alone
Protocol: (§1) Samples stained with enzymatic dyes such as cathepsin B and cathepsin L were administered into the cell culture to allow a reaction for 30 minutes, and changes in activity of lysosomes in cells were confirmed using a confocal microscope.
(§2) Astrocytes were stained with a fluorescence-tagged lysosomal protein, and the degrees of hydrolysis of cathepsin B and cathepsin L, which are lysosomal proteins, were analyzed.
(§3) FIG. 21 is a set of time-dependent confocal microscope images of mouse astrocytes, which are treated with bafilomycin A1, which is a vATPase inhibitor, to assess the degree of hydrolysis of cathepsin B (top) and cathepsin L (bottom).

cathepsin L = experiment: Lysosomal function activity in astrocytes: degree of hydrolysis of cathepsin L; type: cell-based, mouse; conditions: mouse astrocytes treated with bafilomycin A1 alone
Protocol: as §1, §2, §3

Compound: pifithrin
inhibitory efficacy in all PDE isoforms (all PDE isoforms): high inhibitory efficacy

IC50 (all PDE isoforms; read-out: inhibition value of each isoform, lowest): ≥ 0.0003 µM | IC50 (all PDE isoforms; read-out: inhibition value of each isoform, maximum): ≤ 5.5 µM
Compound: Oc1cc(O)cc(/C=C/c2ccc(O)c(O)c2)c1 [piceathanol]
inhibitory efficacy in all PDE isoforms (all PDE isoforms): high inhibitory efficacy

Compound: O=C1CCc2cc(OCCCCc3nnnn3C3CCCCC3)ccc2N1 [cilostazol]
amount of aggregated amyloid beta (mouse pericytes [1]): significantly reduced | lysosomal function (mouse astrocytes): normalized | pH of lysosomes (mouse astrocytes): acidified

Compound: Cc1nc(-c2ccc(OCC(C)C)c(C#N)c2)sc1C(=O)O [febuxostat]
inhibitory efficacy in all PDE isoforms (all PDE isoforms): high inhibitory efficacy

Compound: zafirlukast
inhibitory efficacy in all PDE isoforms (all PDE isoforms): high inhibitory efficacy

Compound: Cc1ccc(NC(=O)c2ccc(CN3CCN(C)CC3)cc2)cc1Nc1nc(-c2cccnc2)cs1 [masitinib]
inhibitory efficacy in all PDE isoforms (all PDE isoforms): high inhibitory efficacy

Compound: OCc1ccc(-c2ccc(-c3ccc(CO)s3)o2)s1 [RITA, 5,5′-(2,5-furandiyl)bis-2-thiophenemethanol]
inhibitory efficacy in all PDE isoforms (all PDE isoforms): high inhibitory efficacy

Compound: CO/C1=C\C(C)=C\[C@@H](C)[C@@H](O)[C@@H](C)C/C(C)=C/C=C/[C@H](OC)[C@@H]([C@@H](C)[C@@H](O)[C@H](C)[C@@]2(O)C[C@@H](O)[C@H](C)[C@@H](C(C)C)O2)OC1=O [bafilomycin A1]
lysosomal pH (mouse pericytes [2]): increased | cathepsin B (lysosomal protein activity) (cathepsin B): decreased | cathepsin L (lysosomal protein activity) (cathepsin L): decreased

Compound: COC1=CC(c2cc3ccccc3[nH]2)=N/C1=C\c1[nH]c(C)cc1C [obatoclax mesylate]
inhibitory efficacy in all PDE isoforms (all PDE isoforms): high inhibitory efficacy

Compound: Oc1ccc(/C=C/c2cc(O)cc(O)c2)cc1 [resveratrol]
inhibitory efficacy in all PDE isoforms (all PDE isoforms): high inhibitory efficacy

Compound: O=C(O)c1cccc(-c2noc(-c3ccccc3F)n2)c1 [ataluren]
inhibitory efficacy in all PDE isoforms (all PDE isoforms): high inhibitory efficacy

Compound: Oc1c(Cl)cc(Cl)c(Cl)c1Cc1c(O)c(Cl)cc(Cl)c1Cl [hexachloropene]
inhibitory efficacy in all PDE isoforms (all PDE isoforms): high inhibitory efficacy

Compound: CCc1ccc(OCc2ccccc2C(=O)Nc2ccc3nc(C)cc(N)c3c2)cc1.Cl [JTC-801]
inhibitory efficacy in all PDE isoforms (all PDE isoforms): high inhibitory efficacy

Compound: Cc1ccc(NC(=O)c2ccc(CN3CCN(C)CC3)cc2)cc1Nc1nccc(-c2cccnc2)n1 [imatinib mesylate]
inhibitory efficacy in all PDE isoforms (all PDE isoforms): high inhibitory efficacy

Compound: Cc1nc(N)sc1-c1ccnc(Nc2ccc(N3CCOCC3)cc2)n1 [CYC116]
inhibitory efficacy in all PDE isoforms (all PDE isoforms): high inhibitory efficacy

Compound: CN1CCN(c2ccc3nc(-c4c(N)c5c(F)cccc5[nH]c4=O)[nH]c3c2)CC1 [dovitinib]
inhibitory efficacy in all PDE isoforms (all PDE isoforms): high inhibitory efficacy
